# Results from PubChem BioAssay AID192 (DTP/NCI, 2004).
# “And” between values parts separate entries of the source, which are not always exact repeats. Equal values may be shown once. Toxic doses and inconclusive results are not listed.
# Tested on: BDF1 mice, B16 melanoma ip, median survival T/C
# Assay: NCI In Vivo Anticancer Drug Screen. Data for tumor model B16 Melanoma (intraperitoneal) in B6D2F1 (BDF1) mice
# Conditions: endpoint: median survival time, higher = longer survival
# Outline: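 Transplantable tumor model; survival or tumor size measured; reported as T/C, treated over vehicle control.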
# [1] = dose: 0.78 mg/kg/injection, schedule: Q01DX009 (ip), vehicle: saline
# [2] = dose: 12.5 mg/kg/injection, schedule: Q01DX009 (ip), vehicle: saline
# [3] = dose: 25.0 mg/kg/injection, schedule: Q01DX009 (ip), vehicle: saline with Tween-80
# [4] = dose: 50.0 mg/kg/injection, schedule: Q01DX009 (ip), vehicle: saline with Tween-80
# [5] = dose: 50.0 mg/kg/injection, schedule: Q01DX009 (ip), vehicle: Klucel (hydroxypropylcellulose) (HPC)
# [6] = dose: 100.0 mg/kg/injection, schedule: Q01DX009 (ip), vehicle: Klucel (hydroxypropylcellulose) (HPC)
# [7] = dose: 200.0 mg/kg/injection, schedule: Q01DX009 (ip), vehicle: Klucel (hydroxypropylcellulose) (HPC)
# [8] = dose: 400.0 mg/kg/injection, schedule: Q01DX009 (ip), vehicle: Klucel (hydroxypropylcellulose) (HPC)
structure (smiles),measurement,setting,value
CN1CCN(CCC=C2c3ccccc3Sc3ccc(S(=O)(=O)N(C)C)cc32)CC1,T/C,[1],102 % of control
same,T/C,"dose: 1.56 mg/kg/injection, schedule: Q01DX009 (ip), vehicle: saline",100 % of control
same,T/C,"dose: 3.12 mg/kg/injection, schedule: Q01DX009 (ip), vehicle: saline",86 % of control
same,T/C,[2],89 % of control
OCC12COCN1COC2,T/C,[2],117 % of control
same,T/C,"dose: 25.0 mg/kg/injection, schedule: Q01DX009 (ip), vehicle: saline",119 % of control
same,T/C,"dose: 50.0 mg/kg/injection, schedule: Q01DX009 (ip), vehicle: saline",111 % of control
same,T/C,"dose: 100.0 mg/kg/injection, schedule: Q01DX009 (ip), vehicle: saline",117 % of control
same,T/C,"dose: 200.0 mg/kg/injection, schedule: Q01DX009 (ip), vehicle: saline",119 % of control
c1ccc([Te][Te]c2ccccc2)cc1,T/C,"dose: 3.0 mg/kg/injection, schedule: Q01DX009 (ip), vehicle: saline with Tween-80",123 % of control
same,T/C,"dose: 6.0 mg/kg/injection, schedule: Q01DX009 (ip), vehicle: saline with Tween-80",123 % of control
Cc1cc(N(C)C)cc(C)c1N=Nc1cc[n+]([O-])cc1,T/C,"dose: 3.13 mg/kg/injection, schedule: Q01DX009 (ip), vehicle: saline with Tween-80",98 % of control
same,T/C,"dose: 6.25 mg/kg/injection, schedule: Q01DX009 (ip), vehicle: saline with Tween-80",100 % of control
same,T/C,"dose: 12.5 mg/kg/injection, schedule: Q01DX009 (ip), vehicle: saline with Tween-80",105 % of control
same,T/C,[3],108 % of control
same,T/C,[4],95 % of control and 113 % of control
O=C(O)C(=O)O.O=C([O-])C(=O)O.O=C([O-])C(=O)O.O=C([O-])C(=O)[O-].[K+].[U],T/C,"dose: 0.5 mg/kg/injection, schedule: Q01DX009 (ip), vehicle: Klucel (hydroxypropylcellulose) (HPC)",98 % of control
same,T/C,"dose: 1.0 mg/kg/injection, schedule: Q01DX009 (ip), vehicle: Klucel (hydroxypropylcellulose) (HPC)",97 % of control
same,T/C,"dose: 1.0 mg/kg/injection, schedule: Q01DX009 (ip), vehicle: saline",100 % of control
same,T/C,"dose: 2.0 mg/kg/injection, schedule: Q01DX009 (ip), vehicle: saline",98 % of control
CN(C)c1ccc2nc3ccc(=[N+](C)C)cc-3sc2c1,T/C,"dose: 6.25 mg/kg/injection, schedule: Q01DX009 (ip), vehicle: saline",86 % of control
same,T/C,[2],93 % of control
NC(N)=N/N=C(/c1ccccc1)c1ccc(F)cc1,T/C,"dose: 20.0 mg/kg/injection, schedule: Q01DX009 (ip), vehicle: saline",110 % of control
same,T/C,"dose: 40.0 mg/kg/injection, schedule: Q01DX009 (ip), vehicle: saline",115 % of control
same,T/C,"dose: 80.0 mg/kg/injection, schedule: Q01DX009 (ip), vehicle: saline",102 % of control
CCP(=S)(CC)P(=S)(CC)CC,T/C,[5],101 % of control
same,T/C,[6],112 % of control
same,T/C,[7],94 % of control
COc1ccc(Cl)cc1NC(=O)Nc1ccc(Cl)c(Cl)c1,T/C,"dose: 18.75 mg/kg/injection, schedule: Q01DX009 (ip), vehicle: Klucel (hydroxypropylcellulose) (HPC)",96 % of control
same,T/C,"dose: 37.5 mg/kg/injection, schedule: Q01DX009 (ip), vehicle: Klucel (hydroxypropylcellulose) (HPC)",95 % of control
same,T/C,"dose: 75.0 mg/kg/injection, schedule: Q01DX009 (ip), vehicle: Klucel (hydroxypropylcellulose) (HPC)",90 % of control
CC(C)NC(=O)OCc1c(COC(=O)NC(C)C)c(-c2ccc(Cl)c(Cl)c2)n2c1CCC2,T/C,"dose: 1.56 mg/kg/injection, schedule: Q01DX009 (ip), vehicle: distilled water + Tween-80",102 % of control
same,T/C,"dose: 2.34 mg/kg/injection, schedule: Q01DX009 (ip), vehicle: other",123 % of control
same,T/C,"dose: 3.11 mg/kg/injection, schedule: Q01DX009 (ip), vehicle: distilled water + Tween-80",118 % of control
same,T/C,"dose: 3.12 mg/kg/injection, schedule: Q01DX009 (ip), vehicle: distilled water + Tween-80",120 % of control
same,T/C,"dose: 4.69 mg/kg/injection, schedule: Q01DX009 (ip), vehicle: saline with Tween-80",183 % of control
same,T/C,"dose: 9.38 mg/kg/injection, schedule: Q01DX009 (ip), vehicle: other",169 % of control
same,T/C,"dose: 9.38 mg/kg/injection, schedule: Q01DX009 (ip), vehicle: saline with Tween-80",173 % of control
same,T/C,"dose: 12.5 mg/kg/injection, schedule: Q01DX009 (ip), vehicle: distilled water + Tween-80",168 % of control
same,T/C,"dose: 14.4 mg/kg/injection, schedule: Q01DX009 (ip), vehicle: distilled water + Tween-80",179 % of control
same,T/C,"dose: 18.75 mg/kg/injection, schedule: Q01DX009 (ip), vehicle: other",197 % of control
same,T/C,"dose: 18.75 mg/kg/injection, schedule: Q01DX009 (ip), vehicle: saline with Tween-80",239 % of control
same,T/C,"dose: 25.0 mg/kg/injection, schedule: Q01DX009 (ip), vehicle: distilled water + Tween-80",200 % of control
same,T/C,"dose: 37.5 mg/kg/injection, schedule: Q01DX009 (ip), vehicle: saline with Tween-80",245 % of control
same,T/C,"dose: 40.0 mg/kg/injection, schedule: Q01DX009 (ip), vehicle: distilled water + Tween-80",103 % of control
same,T/C,"dose: 50.0 mg/kg/injection, schedule: Q01DX009 (ip), vehicle: distilled water + Tween-80",100 % of control
same,T/C,"dose: 75.0 mg/kg/injection, schedule: Q01DX009 (ip), vehicle: saline with Tween-80",215 % of control
CC(=O)NNC(=O)c1ccccc1,T/C,"dose: 12.5 mg/kg/injection, schedule: Q#A X018 (ip), vehicle: water",93 % of control
same,T/C,"dose: 25.0 mg/kg/injection, schedule: Q#A X018 (ip), vehicle: water",93 % of control
same,T/C,"dose: 50.0 mg/kg/injection, schedule: Q#A X018 (ip), vehicle: water",106 % of control
CS(=O)(=O)OCc1c(O)c2c(c(O)c1COS(C)(=O)=O)C(=O)C=CC2=O,T/C,"dose: 6.25 mg/kg/injection, schedule: Q01DX009 (ip), vehicle: Klucel (hydroxypropylcellulose) (HPC)",111 % of control
same,T/C,"dose: 12.5 mg/kg/injection, schedule: Q01DX009 (ip), vehicle: Klucel (hydroxypropylcellulose) (HPC)",106 % of control
same,T/C,"dose: 25.0 mg/kg/injection, schedule: Q01DX009 (ip), vehicle: Klucel (hydroxypropylcellulose) (HPC)",102 % of control
same,T/C,[5],97 % of control
COC1=C(C)C2CC(=O)OC3CC4C(C)CC(O)C(=O)C4(C)C(C1=O)C32C (centres undefined),T/C,"dose: 0.5 mg/kg/injection, schedule: Q01DX009 (ip), vehicle: saline + alcohol",110 % of control
same,T/C,"dose: 1.0 mg/kg/injection, schedule: Q01DX009 (ip), vehicle: saline + alcohol",107 % of control
same,T/C,"dose: 2.0 mg/kg/injection, schedule: Q01DX009 (ip), vehicle: saline + alcohol",99 % of control
same,T/C,"dose: 4.0 mg/kg/injection, schedule: Q01DX009 (ip), vehicle: saline + alcohol",87 % of control
same,T/C,"dose: 8.0 mg/kg/injection, schedule: Q01DX009 (ip), vehicle: saline + alcohol",99 % of control
CCOc1ccccc1NC(=O)Nc1ccccc1,T/C,[6],102 % of control
same,T/C,[7],103 % of control
same,T/C,[8],99 % of control
COC(=O)C1Oc2ccc(Cl)cc2Cc2cc(Cl)ccc2O1,T/C,"dose: 2.5 mg/kg/injection, schedule: Q01DX009 (ip), vehicle: Klucel (hydroxypropylcellulose) (HPC)",91 % of control
same,T/C,"dose: 5.0 mg/kg/injection, schedule: Q01DX009 (ip), vehicle: Klucel (hydroxypropylcellulose) (HPC)",99 % of control
same,T/C,"dose: 10.0 mg/kg/injection, schedule: Q01DX009 (ip), vehicle: Klucel (hydroxypropylcellulose) (HPC)",93 % of control and 99 % of control
CC1=CC(O)C(O)C2(C)C1CC(=O)C13COC4OC(CC1C4=O)C(O)C32 (centres undefined),T/C,"dose: 0.4 mg/kg/injection, schedule: Q01DX009 (ip), vehicle: saline with Tween-80",106 % of control
same,T/C,"dose: 0.8 mg/kg/injection, schedule: Q01DX009 (ip), vehicle: saline with Tween-80",110 % of control
same,T/C,"dose: 1.6 mg/kg/injection, schedule: Q01DX009 (ip), vehicle: saline with Tween-80",113 % of control
same,T/C,"dose: 3.2 mg/kg/injection, schedule: Q01DX009 (ip), vehicle: saline with Tween-80",110 % of control
same,T/C,"dose: 5.0 mg/kg/injection, schedule: Q01DX009 (ip), vehicle: saline with Tween-80",90 % of control
same,T/C,"dose: 10.0 mg/kg/injection, schedule: Q01DX009 (ip), vehicle: saline with Tween-80",91 % of control
CCCCC(CC)CCC(O)CCC(CC)CC (centres undefined),T/C,[6],90 % of control
same,T/C,[8],87 % of control
CN1CCN(CCCN2c3ccccc3Sc3ccc(Cl)cc32)CC1,T/C,"dose: 0.19 mg/kg/injection, schedule: Q01DX009 (ip), vehicle: saline",111 % of control
same,T/C,"dose: 0.39 mg/kg/injection, schedule: Q01DX009 (ip), vehicle: saline",97 % of control
same,T/C,[1],100 % of control
COc1ccc2c(c1)C/C(=N\O)C2=O,T/C,[3],99 % of control
same,T/C,[4],114 % of control
same,T/C,"dose: 100.0 mg/kg/injection, schedule: Q01DX009 (ip), vehicle: saline with Tween-80",92 % of control
